From patent publication US8222404B2, “[1,2,4]Thiadiazin-3-yl acetic acid compound and methods of making the acetic acid compound” (Anadys Pharmaceuticals, Inc., priority 2008, dated 2012)

Tested on: HCV Huh-luc/neo-ET replicon cells
Experiment: Luciferase-Based HCV Replicon Assay (EC50 (1b))
Format: cell-based
Conditions: Hepatitis C virus, 72 hours exposure, luciferase activity
Experimental: Luciferase-Based HCV Replicon Assay Protocol (EC50 (1b))
The cell culture component of the assay was performed essentially as described by Bartenschlager et al., Hepatology 2002, 35, 694-703, wherein exponentially growing HCV Huh-luc/neo-ET replicon cells were seeded at 6×10^3 cells/well in 96 well assay plate. 24 hours later the cells were treated with various concentrations of compound in triplicate. After 72 hours exposure to the compound, the luciferase activity in the wells was determined using Bright-Glo reagent (Promega, Madison, Wis.) with a luminometer (Wallac 1420 Multilabel HTS Counter Victor 2). The background control was replicon cells treated with 100 nM BILN-2061, an inhibitor of the HCV protease. % Inhibition was determined for each compound concentration in relation to the negative (no compound) control to calculate the EC50 (1b).

Row | SMILES | EC50 [nM]
1 | Cc1cc(CN2C(=O)C(C3=NS(=O)(=O)c4c(CNS(C)(=O)=O)csc4N3)=C(O)C3CCCCCC32)ccc1F (racemic) [Example 139, (rac-cis)-N-{3-[1-(4-Fluoro-3-methyl-benzyl)-4-hydroxy-2-oxo-2,4a,5,6,7,8,9,9a-octahydro-1H-cyclohepta[b]pyridin-3-yl]-1,1-dioxo-1,4-dihydro-1λ^6-thieno[2,3-e][1,2,4]thiadiazin-7-ylmethyl}-methanesulfonamide] | > 1000
2 | CC(C)CCC1(C)CN(C2CCCC2)C(=O)C(C2=NS(=O)(=O)c3c(CNS(C)(=O)=O)csc3N2)=C1O (racemic) [Example 21, rac-N-{3-[1-Cyclopentyl-4-hydroxy-5-methyl-5-(3-methyl-butyl)-2-oxo-1,2,5,6-tetrahydro-pyridin-3-yl]-1,1-dioxo-1,4-dihydro-1λ^6-thieno[2,3-e][1,2,4]thiadiazin-7-ylmethyl}-methanesulfonamide] | 100 to 1000
3 | O=C1C(C2=NS(=O)(=O)c3c(CNS(=O)(=O)C4CC4)csc3N2)=C(O)[C@@H]2[C@H]3CC[C@H](C3)[C@@H]2N1Cc1ccc(F)cc1 [Example 33, Cyclopropanesulfonic acid {3-[(1R,2S,7R,8S)-3-(4-fluoro-benzyl)-6-hydroxy-4-oxo-3-aza-tricyclo[6.2.1.0^2,7]undec-5-en-5-yl]-1,1-dioxo-1,4-dihydro-1λ^6-thieno[2,3-e][1,2,4]thiadiazin-7-ylmethyl}-amide] | 5 to 20
4 | CS(=O)(=O)NCc1csc2c1S(=O)(=O)N=C(C1=C(O)[C@@H]3[C@H]4CC[C@H](C4)[C@@H]3N(CCC3CC3)C1=O)N2 [Example 106, N-{3-[(1R,2S,7R,8S)-3-(2-Cyclopropyl-ethyl)-6-hydroxy-4-oxo-3-aza-tricyclo[6.2.1.0^2,7]undec-5-en-5-yl]-1,1-dioxo-1,4-dihydro-1λ^6-thieno[2,3-e][1,2,4]thiadiazin-7-ylmethyl}-methanesulfonamide] | 5 to 20
5 | CS(=O)(=O)NCc1csc2c1S(=O)(=O)N=C(C1=C(O)[C@@H]3CCC[C@@H]3NC1=O)N2 [Example 85, (4aR,7aS)-N-[3-(4-Hydroxy-2-oxo-2,4a,5,6,7,7a-hexahydro-1H-[1]pyrindin-3-yl)-1,1-dioxo-1,4-dihydro-1λ^6-thieno[2,3-e][1,2,4]thiadiazin-7-ylmethyl]-methanesulfonamide] | > 1000
6 | CC(C)CCN1C(=O)C(C2=NS(=O)(=O)c3c(CNS(C)(=O)=O)csc3N2)=C(O)C2CCCCCC21 (racemic) [Example 138, (rac-cis)-N-{3-[4-Hydroxy-1-(3-methyl-butyl)-2-oxo-2,4a,5,6,7,8,9,9a-octahydro-1H-cyclohepta[b]pyridin-3-yl]-1,1-dioxo-1,4-dihydro-1λ^6-thieno[2,3-e][1,2,4]thiadiazin-7-ylmethyl}-methanesulfonamide] | 20 to 100
7 | CS(=O)(=O)NCc1csc2c1S(=O)(=O)N=C(C1=C(O)C3(CC3)CN(Cc3ccc(F)cc3)C1=O)N2 [Example 11, N-{3-[5-(4-Fluoro-benzyl)-8-hydroxy-6-oxo-5-aza-spiro[2.5]oct-7-en-7-yl]-1,1-dioxo-1,4-dihydro-1λ^6-thieno[2,3-e][1,2,4]thiadiazin-7-ylmethyl}-methanesulfonamide] | > 1000
8 | CS(=O)(=O)NCc1csc2c1S(=O)(=O)N=C(C1=C(O)C3CCCCC3NC1=O)N2 (racemic) [Example 86, (rac-cis)-N-[3-(4-Hydroxy-2-oxo-1,2,4a,5,6,7,8,8a-octahydro-quinolin-3-yl)-1,1-dioxo-1,4-dihydro-1λ^6-thieno[2,3-e][1,2,4]thiadiazin-7-ylmethyl]-methanesulfonamide] | > 1000
9 | CC(C)C1CC(O)=C(C2=NS(=O)(=O)c3c(CNS(C)(=O)=O)csc3N2)C(=O)N1Cc1ccc(F)cc1 (racemic) [Example 8, rac-N-{3-[1-(4-Fluoro-benzyl)-4-hydroxy-6-isopropyl-2-oxo-1,2,5,6-tetrahydro-pyridin-3-yl]-1,1-dioxo-1,4-dihydro-1λ^6-thieno[2,3-e][1,2,4]thiadiazin-7-ylmethyl}-methanesulfonamide] | 20 to 100
10 | CCCC1CN(Cc2ccc(F)cc2)C(=O)C(C2=NS(=O)(=O)c3c(CNS(C)(=O)=O)csc3N2)=C1O (racemic) [Example 15, rac-N-{3-[1-(4-Fluoro-benzyl)-4-hydroxy-2-oxo-5-propyl-1,2,5,6-tetrahydro-pyridin-3-yl]-1,1-dioxo-1,4-dihydro-1λ^6-thieno[2,3-e][1,2,4]thiadiazin-7-ylmethyl}-methanesulfonamide] | 100 to 1000
11 | CS(=O)(=O)NCc1csc2c1S(=O)(=O)N=C(C1=C(O)[C@@H]3[C@@H]4CC[C@@H](C4)[C@@H]3N(C3CCCCC3)C1=O)N2 [Example 98, N-[3-((1S,2S,7R,8R)-3-Cyclohexyl-6-hydroxy-4-oxo-3-aza-tricyclo[6.2.1.0^2,7]undec-5-en-5-yl)-1,1-dioxo-1,4-dihydro-1λ^6-thieno[2,3-e][1,2,4]thiadiazin-7-ylmethyl]-methanesulfonamide] | 100 to 1000
12 | CS(=O)(=O)NCc1csc2c1S(=O)(=O)N=C(C1=C(O)[C@@H]3[C@H]4CC[C@H](C4)[C@@H]3N(Cc3ccsc3)C1=O)N2 [Example 55, N-[(1R,2S,7R,8S)-3-(6-Hydroxy-4-oxo-3-thiophen-3-ylmethyl-3-aza-tricyclo[6.2.1.0^2,7]undec-5-en-5-yl)-1,1-dioxo-1,4-dihydro-1λ^6-thieno[2,3-e][1,2,4]thiadiazin-7-ylmethyl]-methanesulfonamide] | ≤ 5
13 | CS(=O)(=O)NCc1csc2c1S(=O)(=O)N=C(C1=C(O)[C@@H]3C4CCC(CC4)[C@@H]3N(Cc3ccccc3)C1=O)N2 [Example 48, N-[3-((2S,7R)-3-Benzyl-6-hydroxy-4-oxo-3-aza-tricyclo[6.2.2.0^2,7]dodec-5-en-5-yl)-1,1-dioxo-1,4-dihydro-1λ^6-thieno[2,3-e][1,2,4]thiadiazin-7-ylmethyl]-methanesulfonamide] | ≤ 5
14 | CS(=O)(=O)NCc1csc2c1S(=O)(=O)N=C(C1=C(O)[C@@H]3CCC[C@@H]3N(Cc3ccc(F)cc3)C1=O)N2 [Example 110, (4aR,7aS)-N-{3-[1-(4-Fluoro-benzyl)-4-hydroxy-2-oxo-2,4a,5,6,7,7a-hexahydro-1H-[1]pyrindin-3-yl]-1,1-dioxo-1,4-dihydro-1λ^6-thieno[2,3-e][1,2,4]thiadiazin-7-ylmethyl}-methanesulfonamide] | 5 to 20
15 | COc1ccc(CN2C(=O)C(C3=NS(=O)(=O)c4c(CNS(C)(=O)=O)csc4N3)=C(O)[C@@H]3[C@@H]4CC[C@@H](C4)[C@@H]32)c(OC)c1 [Example 73, N-{3-[(1S,2S,7R,8R)-3-(2,4-Dimethoxy-benzyl)-6-hydroxy-4-oxo-3-aza-tricyclo[6.2.1.0^2,7]undec-5-en-5-yl]-1,1-dioxo-1,4-dihydro-1λ^6-thieno[2,3-e][1,2,4]thiadiazin-7-ylmethyl}-methanesulfonamide] | > 1000
16 | CS(=O)(=O)NCc1csc2c1S(=O)(=O)N=C(C1=C(O)[C@@H]3[C@H]4CC[C@H](C4)[C@@H]3N(Cc3ccccc3)C1=O)N2 [Example 50, N-[3-((1R,2S,7R,8S)-3-Benzyl-6-hydroxy-4-oxo-3-aza-tricyclo[6.2.1.0^2,7]undec-5-en-5-yl)-1,1-dioxo-1,4-dihydro-1λ^6-thieno[2,3-e][1,2,4]thiadiazin-7-ylmethyl]-methanesulfonamide] | ≤ 5
